Assay results from PubChem BioAssay (NCI).
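96-well plates; 48 h exposure; 5 concentrations. Endpoints by linear interpolation between flanking doses. Not reached: highest tested concentration assigned. At the TGI there is no net growth.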

How the values were obtained:
Assay in all cases: inhibition of tumour cell growth, NCI panel, 48 h
M14 melanoma = system: M14 melanoma
SR leukemia = system: SR leukemia
OVCAR-3 ovarian = system: OVCAR-3 ovarian
HS 578T breast = system: HS 578T breast
NCI-H460 lung = system: NCI-H460 lung
SK-MEL-5 melanoma = system: SK-MEL-5 melanoma
HL-60(TB) leukemia = system: HL-60(TB) leukemia
A549 NSCLC = system: A549 NSCLC
TK-10 renal = system: TK-10 renal
MDA-MB-231 breast = system: MDA-MB-231 breast
CAKI-1 renal = system: CAKI-1 renal
MDA-N = system: MDA-N
SN12C renal = system: SN12C renal
T-47D breast = system: T-47D breast
KM20L2 colon = system: KM20L2 colon
M19-MEL melanoma = system: M19-MEL melanoma
HOP-18 NSCLC = system: HOP-18 NSCLC
DMS 114 small cell lung = system: DMS 114 small cell lung
DMS 273 small cell lung = system: DMS 273 small cell lung
XF 498 CNS = system: XF 498 CNS

| SMILES | TGI (M14 melanoma) [µM] | TGI (SR leukemia) [µM] | TGI (OVCAR-3 ovarian) [µM] | TGI (HS 578T breast) [µM] | TGI (NCI-H460 lung) [µM] | TGI (SK-MEL-5 melanoma) [µM] | TGI (HL-60(TB) leukemia) [µM] | TGI (A549 NSCLC) [µM] | TGI (TK-10 renal) [µM] | TGI (MDA-MB-231 breast) [µM] | TGI (CAKI-1 renal) [µM] | TGI (MDA-N) [µM] | TGI (SN12C renal) [µM] | TGI (T-47D breast) [µM] | TGI (KM20L2 colon) [µM] | TGI (M19-MEL melanoma) [µM] | TGI (HOP-18 NSCLC) [µM] | TGI (DMS 114 small cell lung) [µM] | TGI (DMS 273 small cell lung) [µM] | TGI (XF 498 CNS) [µM] |
| --- | --- | --- | --- | --- | --- | --- | --- | --- | --- | --- | --- | --- | --- | --- | --- | --- | --- | --- | --- | --- |
| O=P(O)(O)CCP(=O)(O)O | > 100 | > 100 | > 100 | > 100 | > 100 | > 100 | > 100 | > 100 | > 100 | > 100 | > 100 | > 100 | > 100 | > 100 |  |  |  |  |  |  |
| NC(CCCCCP(=O)(c1ccccc1)C1C=CC=CC1)C(=O)O (configuration not stated) | > 100 | > 100 | > 100 | > 100 | > 100 | > 100 | > 100 | > 100 | > 100 | > 100 | > 100 | > 100 | > 100 | > 100 |  |  |  |  |  |  |
| CCCC(=O)OCC1OC(n2ccc(N)nc2=O)C(OC(=O)CCC)C1OC(=O)CCC (configuration not stated) |  |  | > 100 |  | > 100 | > 100 | 25.1 | > 100 |  |  | > 100 |  | > 100 |  | > 100 | > 100 | > 100 | > 100 | > 100 |  |
| CC(=O)OC1/C=C(\C)C(OC(C)=O)C/C=C(/C)CCC2C(/C=C/C1=O)C2(C)C (configuration not stated) | > 100 |  | > 100 |  | > 100 | > 100 |  | > 100 | > 100 |  |  |  | > 100 |  | > 100 | > 100 | > 100 |  |  | > 100 |
| O=c1sc2ccccc2n1CC1CS1 (configuration not stated) | > 100 | > 100 | > 100 |  | > 100 |  | > 100 | > 100 | > 100 |  | > 100 |  | > 100 |  | > 100 | > 100 |  | > 100 | > 100 | > 100 |
| CCN(CC)CCNc1ccc2nnn3c4ccc(OCCN(CC)CC)cc4c(=O)c1c23 | > 100 | 45.4 |  | > 100 | > 100 |  |  | > 100 | > 100 | > 100 | > 100 | > 100 | > 100 | > 100 |  |  |  |  |  |  |
| COc1ccc(/C=C2\CCNC2=O)cc1 |  |  | > 100 |  | > 100 | > 100 | > 100 | > 100 |  |  | > 100 |  | > 100 |  | > 100 | > 100 | > 100 | > 100 | > 100 | > 100 |
| C=CCc1c(O)c2c(c3oc(=O)cc(C)c13)CC(C)O2 (configuration not stated) | > 100 | > 100 | > 100 |  | > 100 | > 100 | > 100 | > 100 | > 100 |  | > 100 |  | > 100 |  | > 100 | > 100 | > 100 | > 100 | > 100 |  |
| CC(C)Cc1ccc(C(C)C(=O)N2CCN(/C=C/c3ccccc3)CC2)cc1 (configuration not stated) |  |  | 25.9 |  | 32.9 | 26 | 18.7 | 29.7 |  |  |  |  | 30.8 |  | 29.9 | 29.7 | 35.9 | 24.6 | 24.2 | 27.3 |
| CCOc1ncn(-c2ccc(NC(=S)Nc3ncccn3)cc2)n1 | 91.3 | 59.5 | > 100 |  | > 100 | 44.9 | 65.2 | > 100 | > 100 | 64.6 |  |  | > 100 | 62.2 |  |  |  |  |  |  |
